BigSolDB 2.1

Oc1ccc(Cl)c2cccnc12
solubility (mole fraction)
Conditions	278.15 K	283.15 K	288.15 K	293.15 K	298.15 K	303.15 K	308.15 K	313.15 K	318.15 K	323.15 K
in 1,4-dioxane	–	–	0.0556	0.064	0.0751	0.0875	0.102	0.119	0.14	0.161
in 2-ethoxyethanol	0.0161	0.0194	0.0249	0.0284	0.0333	0.0398	0.0466	0.055	0.0646	0.0768
in ethanol	0.00253	0.00304	0.00376	0.00468	0.00564	0.00694	0.00839	0.0101	0.0121	0.0145
in n-propyl acetate	0.015	0.0178	0.0213	0.0251	0.0297	0.0355	0.0416	0.0495	0.0587	0.0696
